Here are results for 40 molecules from ChEMBL document CHEMBL4382235, “Design, synthesis and biological evaluation of novel 1-phenyl phenanthridin-6(5H)-one derivatives as anti-tumor agents targeting TOPK” (Eur J Med Chem, 2019).

What all share (assay): cells
The test system of test [1] is HCT-116. Particulars: Homo sapiens, HCT-116, 72 h.
Description: Antiproliferative activity against human HCT116 cells after 72 hrs by MTT assay
For test [2], the system named is A549. Particulars: Homo sapiens, A549, 72 h.
Description: Antiproliferative activity against human A549 cells after 72 hrs by MTT assay
Test [3] relates to HCT-15. Particulars: Homo sapiens, HCT-15, 72 h.
Description: Antiproliferative activity against human HCT15 cells after 72 hrs by MTT assay

SMILES strings stand for the structures. Where only a bound is given, the exact number is not on record here.

Consider `Cc1cc(O)c(-c2ccc([C@@H](C)N)cc2)c2c1[nH]c(=O)c1sccc12`, for which the IC50 in test [1] turned out to be 468 nM; in test [2], 360 nM; in test [3], 257 nM.
On the same counts, the results for `C[C@H](c1ccc(-c2c(O)cc(Cl)c3[nH]c(=O)c4ccccc4c23)cc1)N(C)C` are more than 1000 nM, more than 1000 nM and more than 1000 nM.
For the molecule `NCC1(c2ccc(-c3c(O)cc(Cl)c4[nH]c(=O)c5c(O)cccc5c34)cc2)CC1`, the results for the IC50 in test [1] and in test [2] were 564 nM and 437 nM, respectively.
On the same counts, the results for `COc1cc(C)c2[nH]c(=O)c3ccccc3c2c1-c1ccc(C2(CN)CC2)cc1` are more than 1000 nM and 894 nM.
Turning to `C[C@@H](N)c1ccc(-c2c(O)cc(Cl)c3[nH]c(=O)c4ccccc4c23)cc1`, the concentration for half-maximal inhibition (IC50) in test [1] was more than 1000 nM; in test [2] it was 600 nM; in test [3], 801 nM.
Consider `Cc1cc(O)c(-c2ccc([C@@H](C)N(C)C)cc2)c2c1[nH]c(=O)c1c(C)cccc12`, for which the IC50 in test [1] was 469 nM; in test [2], 470 nM; in test [3], 397 nM.
Take `Cc1cc(O)c(-c2ccc([C@@H](C)CN(C)C)cc2)c2c1[nH]c(=O)c1ccccc12`: the figures for the half-inhibitory concentration (IC50) in test [1], in test [2] and in test [3] were 299 nM, 264 nM and 600 nM, respectively.
On the same counts, the results for `Cc1cc(O)c(-c2ccc([C@@H](C)CN)cc2)c2c1[nH]c(=O)c1ccccc12` are 114 nM, 78.7 nM and 365 nM.
For `Cc1cc(O)c(-c2ccc([C@@H](C)N(C)C)cc2)c2c1[nH]c(=O)c1ccccc12`, the IC50 in test [1] was 314 nM; in test [2], 250 nM.
With `Cc1ccc2c(=O)[nH]c3c(C)cc(O)c(-c4ccc([C@@H](C)CN)cc4)c3c2c1`, the IC50 in test [1] stood at 156 nM; in test [2] it was 60.3 nM; in test [3] it was 327 nM.
As for `Cc1ccc2c(=O)[nH]c3c(C)cc(O)c(-c4ccc([C@@H](C)N)cc4)c3c2c1`, the figures for the 50% inhibitory concentration (IC50) in test [1], in test [2] and in test [3] were 385 nM, 120 nM and 217 nM, respectively.
For `Cc1ccc2c(=O)[nH]c3c(C)cc(O)c(-c4ccc([C@@H](C)N(C)C)cc4)c3c2c1`, the IC50 was found to be 274 nM in test [1], 317 nM in test [2] and 467 nM in test [3].
Consider `Cc1cc(O)c(-c2ccc(C3(CN(C)C)CC3)cc2)c2c1[nH]c(=O)c1ccccc12`, for which the half-maximal inhibitory concentration (IC50) was 950 nM in test [1] and more than 1000 nM in test [2].
With `Cc1cc(O)c(-c2ccc(C3(CN)CC3)cc2)c2c1[nH]c(=O)c1ccccc12`, the IC50 worked out at 231 nM in test [1], 211 nM in test [2] and 398 nM in test [3].
With `Cc1cc(O)c(-c2ccc([C@@H](C)CN(C)C)cc2)c2c1[nH]c(=O)c1c(C)cccc12`, the half-inhibitory concentration (IC50) in test [1] was determined as 419 nM; in test [2], 287 nM; in test [3] it was 337 nM.
On the same counts, the results for `Cc1cc(O)c(-c2ccc([C@@H](C)CN)cc2)c2c1[nH]c(=O)c1c(C)cccc12` are 75.8 nM, 25.9 nM and 301 nM.
Consider `Cc1ccc2c(c1)c(=O)[nH]c1c(C)cc(O)c(-c3ccc([C@@H](C)N)cc3)c12`, for which the half-inhibitory concentration (IC50) in test [1] was 571 nM; in test [2] it was more than 1000 nM.
On the same counts, the results for `Cc1cc(O)c(-c2ccc(C3(CN(C)C)CC3)cc2)c2c1[nH]c(=O)c1c(N(C)C)cccc12` are more than 1000 nM and more than 1000 nM.
For the molecule `Cc1cc(O)c(-c2ccc([C@@H](C)N)cc2)c2c1[nH]c(=O)c1c(O)cccc12`, the half-maximal inhibitory concentration (IC50) worked out at 102 nM in test [1], 82.5 nM in test [2] and 96.7 nM in test [3].
In the case of `Cc1cc(O)c(-c2ccc([C@@H](C)CN)cc2)c2c1[nH]c(=O)c1c(N(C)C)cccc12`, the IC50 in test [1] and in test [2] was more than 1000 nM each time.
Turning to `Cc1cc(O)c(-c2ccc(C3(CN(C)C)CC3)cc2)c2c1[nH]c(=O)c1c(O)cccc12`, the 50% inhibitory concentration (IC50) worked out at 141 nM in test [1] and 406 nM in test [2].
As to `Cc1cc(O)c(-c2ccc([C@@H](C)N)cc2)c2c1[nH]c(=O)c1ccccc12`, the IC50 is more than 1000 nM in test [1], 920 nM in test [2] and more than 1000 nM in test [3].
Take `CN(C)CC1(c2ccc(-c3c(O)cc(Cl)c4[nH]c(=O)c5c(O)cccc5c34)cc2)CC1`: the half-inhibitory concentration (IC50) in test [1] is more than 1000 nM; in test [2], 898 nM.
Consider `C[C@@H](CN(C)C)c1ccc(-c2c(O)cc(Cl)c3[nH]c(=O)c4ccccc4c23)cc1`, for which the 50% inhibitory concentration (IC50) in test [1], in test [2] and in test [3] was more than 1000 nM each time.
For `Cc1cc(O)c(-c2ccc([C@@H](C)CN)cc2)c2c1[nH]c(=O)c1c(F)cccc12`, the half-inhibitory concentration (IC50) in test [1] is 438 nM; in test [2], 110 nM; in test [3], more than 1000 nM.
For `C[C@@H](N)c1ccc(-c2c(O)cc(Cl)c3[nH]c(=O)c4c(O)cccc4c23)cc1`, the figures for the IC50 in test [1] and in test [2] were 720 nM and 554 nM, respectively.
`Cc1cc(O)c(-c2ccc([C@@H](C)N)cc2)c2c1[nH]c(=O)c1c(C)cccc12`: the IC50 turned out to be 242 nM in test [1], 187 nM in test [2] and 505 nM in test [3].
On the same counts, the results for `COc1cc(C)c2[nH]c(=O)c3ccccc3c2c1-c1ccc([C@@H](C)CN)cc1` are 357 nM, 360 nM and 278 nM.
`Cc1cc(O)c(-c2ccc([C@@H](C)CN)cc2)c2c1[nH]c(=O)c1sccc12`: the results for the IC50 in test [1], in test [2] and in test [3] were 18.9 nM, 19.5 nM and 187 nM, respectively.
Take `Cc1cc(O)c(-c2ccc(C3(CN)CC3)cc2)c2c1[nH]c(=O)c1c(O)cccc12`: the IC50 in test [1] was 44.7 nM; in test [2], 136 nM.
Turning to `Cc1cc(O)c(-c2ccc([C@@H](C)CN(C)C)cc2)c2c1[nH]c(=O)c1c(O)cccc12`, the IC50 in test [1] is 215 nM; in test [2], 113 nM; in test [3], 76 nM.
`COc1cc(C)c2[nH]c(=O)c3ccccc3c2c1-c1ccc([C@@H](C)N)cc1`: the IC50 in test [1] and in test [2] was more than 1000 nM each time.
As for `C[C@@H](CN(C)C)c1ccc(-c2c(O)cc(Cl)c3[nH]c(=O)c4c(O)cccc4c23)cc1`, the IC50 was 534 nM in test [1] and 554 nM in test [2].
On to `Cc1cc(O)c(-c2ccc([C@@H](C)N(C)C)cc2)c2c1[nH]c(=O)c1c(O)cccc12`, for which the IC50 stood at 396 nM in test [1], 128 nM in test [2] and 162 nM in test [3].
Consider `C[C@@H](CN)c1ccc(-c2c(O)cc(Cl)c3[nH]c(=O)c4ccccc4c23)cc1`, for which the IC50 in test [1] is 636 nM; in test [2], more than 1000 nM; in test [3], 309 nM.
For `Cc1ccc2c(c1)c(=O)[nH]c1c(C)cc(O)c(-c3ccc([C@@H](C)N(C)C)cc3)c12`, the IC50 in test [1] and in test [2] was more than 1000 nM in each case.
For `C[C@@H](CN)c1ccc(-c2c(O)cc(Cl)c3[nH]c(=O)c4c(O)cccc4c23)cc1`, the half-inhibitory concentration (IC50) in test [1] came to 372 nM; in test [2], 103 nM.
In the case of `Cc1ccc2c(c1)c(=O)[nH]c1c(C)cc(O)c(-c3ccc([C@@H](C)CN(C)C)cc3)c12`, the IC50 in test [1] was 830 nM; in test [2] it was more than 1000 nM.
On the same counts, the results for `C[C@H](c1ccc(-c2c(O)cc(Cl)c3[nH]c(=O)c4c(O)cccc4c23)cc1)N(C)C` are more than 1000 nM and 516 nM.
As to `Cc1ccc2c(c1)c(=O)[nH]c1c(C)cc(O)c(-c3ccc([C@@H](C)CN)cc3)c12`, the figures for the IC50 in test [1] and in test [2] were 962 nM and more than 1000 nM, respectively.
